# Source: PubChem BioAssay (NCI)
# Several values for one entry are separate records, joined by “and”; a condition that tells them apart may be missing. Equal entries are not always repeated.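 These data come from cells grown in 96-well plates and exposed to compound for 48 hours at five concentrations. GI50 is the concentration that inhibits growth by half. The concentration for full growth arrest is given as TGI.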
# What was measured:
# Test in all cases: inhibition of tumour cell growth, NCI panel, 48 h
# SN12C renal = tested on: SN12C renal
# COLO 205 colon = tested on: COLO 205 colon
# HCT-116 colon = tested on: HCT-116 colon
# 786-0 renal = tested on: 786-0 renal
# NCI-H23 lung = tested on: NCI-H23 lung
# ACHN renal = tested on: ACHN renal
# RPMI-8226 leukemia = tested on: RPMI-8226 leukemia
# OVCAR-5 ovarian = tested on: OVCAR-5 ovarian
# SK-OV-3 ovarian = tested on: SK-OV-3 ovarian
# MOLT-4 leukemia = tested on: MOLT-4 leukemia
SMILES,GI50 (SN12C renal) [µM],TGI (SN12C renal) [µM],GI50 (COLO 205 colon) [µM],TGI (COLO 205 colon) [µM],GI50 (HCT-116 colon) [µM],TGI (HCT-116 colon),GI50 (786-0 renal),TGI (786-0 renal),GI50 (NCI-H23 lung),TGI (NCI-H23 lung) [µM],GI50 (ACHN renal) [µM],TGI (ACHN renal) [µM],GI50 (RPMI-8226 leukemia) [µM],TGI (RPMI-8226 leukemia),GI50 (OVCAR-5 ovarian) [µM],TGI (OVCAR-5 ovarian),TGI (SK-OV-3 ovarian) [µM],TGI (MOLT-4 leukemia) [µM],GI50 (SK-OV-3 ovarian) [µM],GI50 (MOLT-4 leukemia) [µM]
COc1cccc2c(=O)c3c(sc12)c(N1CCNCC1)nc1ccccc13,1.54,3.06,2.07,4.72,1.55,3.28 µM,1.73 µM,3.39 µM,1.62 µM,3.1,1.6,2.97,2.39,5.8 µM,1.79,3.24 µM,–,–,–,–
O=C(O)[C@H](NS(=O)(=O)c1ccc([N+](=O)[O-])cc1)c1ccccc1,–,> 100,–,> 100,–,> 100 µM,–,> 100 µM,–,> 100,–,> 100,–,> 100 µM,–,> 100 µM,> 100,> 100,–,–
COc1cc(/C=C(\C#N)c2ccccc2)cc(OC)c1,–,> 100,–,> 100,–,> 100 µM,–,> 100 µM,–,> 100,–,> 100,–,> 100 µM,–,> 100 µM,> 100,58.6,–,–
CN(CCC#N)c1ccc(/C=C(\C#N)c2ccc(Br)cc2)cc1,–,–,–,–,–,–,> 100 µM,> 100 µM,> 100 µM,> 100,> 100,> 100,–,–,> 100,> 100 µM,> 100,–,> 100,–
O=C1CSC(/C(=N/Nc2ccccc2)c2nc3ccccc3[nH]2)=N1,–,> 100,–,> 100,–,> 100 µM,–,80 µM,–,> 100,–,> 100,–,–,–,> 100 µM,73.5,–,–,–
COc1ccc(C(=O)COc2ccc(/C=C3\COc4ccc(OC)cc4C3=O)cc2)cc1,30.9,> 100,51.8,> 100,11.1,31.1 µM,16.7 µM,37.9 µM,9.67 µM,32.8,29.7,> 100,3.47,22.6 µM,30.2,86.9 µM,81,51.6,30.6,9.36
O=C1OC2CCCC[C@@H]2C2C[C@]34CCCCC3[C@@H](C(=O)O4)C12 (stereo partly drawn),–,> 100,–,> 100,–,> 100 µM,–,> 100 µM,–,> 100,–,> 100,–,–,–,> 100 µM,> 100,> 100,–,–
O=C1CC2c3ccccc3CCC2c2ccccc21 (stereo not drawn),–,–,–,11.2,–,42.1 µM,–,79.8 µM,–,69,–,> 100,–,> 100 µM,–,> 100 µM,> 100,> 100,–,–
N#CC1CC2(C1)OCCS2 (stereo not drawn),–,> 100,–,> 100,–,> 100 µM,–,> 100 µM,–,> 100,–,> 100,–,> 100 µM,–,> 100 µM,–,> 100,–,–
Nc1ccc2cc3ccc(N)cc3nc2c1,1.18,–,0.936,–,–,10.8 µM [middle of 4 runs],1.97 µM [middle of 4 runs],11.8 µM [middle of 4 runs],1.58 µM [middle of 4 runs],–,0.609,–,–,4.77 µM and 5.01 µM and 6.42 µM,1.97,4.98 µM and 30.1 µM and 28.6 µM,–,–,–,–
CC(=O)C(=CN1CCN(C(=O)c2ccco2)C1=S)C(C)=O,2.57,7.11,23.4,54.9,4.05,13.7 µM,5.34 µM,18.8 µM,16.4 µM,31.6,2.87,8.04,2.74,> 100 µM,–,–,43.9,> 100,20,8.2
O=C1NC2OC(C(O)CO)C(O)C2O1 (stereo not drawn),–,> 100,–,> 100,–,> 100 µM,–,> 100 µM,–,> 100,–,> 100,–,–,–,> 100 µM,> 100,> 100,–,–
O=c1c2ccccc2c(=O)c2c1[nH]c1c(-c3ccccc3)c(-c3ccccc3)c(=O)c12,3.57,16,3.94,13.1,2.31,4.87 µM,3.96 µM,14.9 µM,3.72 µM,14.4,1.93,3.62,2.07,12 µM,4.27,14.7 µM,–,13.3,–,1.92
COc1cc(/C=C/c2cc(/C=C/c3ccc(O)c(OC)c3)n(C(=O)Nc3ccc(C)cc3C)n2)ccc1O,–,–,1.9,3.38,–,–,0.549 µM,1.76 µM,0.275 µM,1.25,0.412,2.11,0.352,1.74 µM,1.51,6.85 µM,1.21,1.22,0.347,0.281
CC1=C[C@H]2c3c(c(O)c(O)c4oc(-c5ccccc5)cc(=O)c34)[C@H](c3cc(O)c(O)c4oc(-c5ccccc5)cc(=O)c34)[C@H]2C(C)(C)C1,1.09,7.31,1.48,11.6,0.272,1.45 µM,1.71 µM,7.83 µM,0.375 µM,2.56,0.679,5.67,–,–,3.22,13 µM,10.9,> 75,1.76,0.988
NC(=O)NCc1c(C(N)=O)ncn1Cc1ccccc1,–,> 100,–,> 100,–,> 100 µM,–,> 100 µM,–,> 100,–,> 100,–,> 100 µM,–,–,> 100,> 100,–,–
Cn1c2ccccc2c(=O)c2ccc(Cl)cc21,–,> 10,–,> 10,–,> 10 µM,–,> 10 µM,–,> 10,–,–,–,> 10 µM,–,–,> 10,> 10,–,–
O=C1CSC(c2ccc(Cl)cc2Cl)N1c1ccc(F)cc1 (stereo not drawn),16.7,30.6,–,–,16.7,30.3 µM,17.8 µM,31.7 µM,16.6 µM,31.2,17.2,31.1,19.5,42.7 µM,16,29.5 µM,–,43.4,–,18.5
